Experimental findings from publication PMC3937722, “Biochemical studies on a versatile esterase that is most catalytically active with polyaromatic esters” (Microbial Biotechnology, 2014) are described below.

The first test has as its system T1, CN1E1.
T1 construct: catalytic triad Ser155, Asp250, His280
The test can be described thus: ester hydrolysis kinetics. As to conditions: 5 mM EPPS pH 8.0, 40°C. The test is classed as biochemical, uncultured bacterium. An excerpt:
ester hydrolysis kinetics on CN1E1
The term Km denotes the concentration of substrate that gives half-maximal velocity. In the case of `COC(=O)/C=C/c1cc(O)ccc1O` [2,5-Dihydroxycinnamic acid methyl ester], the Km was found to be 1060 ± 60 µM.
Still for that read-out and setting: for `COC(=O)c1ccc2cc3ccccc3cc2c1` [Anthracene-2-carboxylic acid methyl ester] the value was 1470 ± 50 µM.
Same read-out and setting: for `O=Cc1ccc(C(=O)OCc2ccccc2)cc1` [Benzoic acid, 4-formyl-, phenylmethyl ester] the value was 640 ± 60 µM; for `CCCCOC(C)=O` [Butyl acetate], 2100 ± 170 µM; for `COC(=O)c1ccccc1C(=O)OC` [Dimethyl phthalate], 1590 ± 100 µM.
On the same count and under the same terms, under `COC(=O)CBr` [Methyl bromoacetate] stands 1700 ± 90 µM; under `COC(=O)c1ccc2ccc3ccccc3c2c1` [Methyl phenanthrene-3-carboxylate], 1600 ± 90 µM; under `COC(=O)c1cc2ccccc2c2ccccc12` [Methyl phenanthrene-9-carboxylate], 530 ± 30 µM.
On to `CC(=O)Oc1ccccc1` [Phenyl acetate], for which the Km was determined as 940 ± 50 µM.
Still for that read-out and setting: for `CCOC(=O)c1ccc(O)c(O)c1` [Protocatechuic acid ethyl ester] the value was 1140 ± 60 µM; for `CC(=O)OC[C@H]1OC=C[C@@H](OC(C)=O)[C@@H]1OC(C)=O` [Tri-O-acetyl-D-glucal], 1080 ± 50 µM.
Still for that read-out and setting: for `CC(=O)OCC(COC(C)=O)OC(C)=O` [Triacetin] the value was 1640 ± 80 µM.
On to “Naphthalene carboxylic acid methyl ester”, for which the Km was found to be 710 ± 60 µM.

In another test the test system is T1, CN1E1. The test can be described thus: ester hydrolysis kinetics, p-nitrophenol release. The test is classed as biochemical, uncultured bacterium. Particulars: pH 7.0 (b12; table heading says pH 8.0), 40°C. From the text:
ester hydrolysis kinetics, p-nitrophenol release on CN1E1
As to `CC(=O)Oc1ccc([N+](=O)[O-])cc1` [pNP-acetate], the Km was determined as 190 ± 10 µM.
